# Measurements reported in patent US9676728B2, “2-benzyl-benzimidazole complement factor B inhibitors and uses thereof” (Novartis AG, priority 2013, dated 2017).
# Target: Recombinant human factor B (Homo sapiens (Human), UniProt P00751)
# Assay: Human Complement Factor B TR-FRET Assay (displacement of Cy5-labeled ligand)
# Recombinant human factor B, sequence (P00751 26-764): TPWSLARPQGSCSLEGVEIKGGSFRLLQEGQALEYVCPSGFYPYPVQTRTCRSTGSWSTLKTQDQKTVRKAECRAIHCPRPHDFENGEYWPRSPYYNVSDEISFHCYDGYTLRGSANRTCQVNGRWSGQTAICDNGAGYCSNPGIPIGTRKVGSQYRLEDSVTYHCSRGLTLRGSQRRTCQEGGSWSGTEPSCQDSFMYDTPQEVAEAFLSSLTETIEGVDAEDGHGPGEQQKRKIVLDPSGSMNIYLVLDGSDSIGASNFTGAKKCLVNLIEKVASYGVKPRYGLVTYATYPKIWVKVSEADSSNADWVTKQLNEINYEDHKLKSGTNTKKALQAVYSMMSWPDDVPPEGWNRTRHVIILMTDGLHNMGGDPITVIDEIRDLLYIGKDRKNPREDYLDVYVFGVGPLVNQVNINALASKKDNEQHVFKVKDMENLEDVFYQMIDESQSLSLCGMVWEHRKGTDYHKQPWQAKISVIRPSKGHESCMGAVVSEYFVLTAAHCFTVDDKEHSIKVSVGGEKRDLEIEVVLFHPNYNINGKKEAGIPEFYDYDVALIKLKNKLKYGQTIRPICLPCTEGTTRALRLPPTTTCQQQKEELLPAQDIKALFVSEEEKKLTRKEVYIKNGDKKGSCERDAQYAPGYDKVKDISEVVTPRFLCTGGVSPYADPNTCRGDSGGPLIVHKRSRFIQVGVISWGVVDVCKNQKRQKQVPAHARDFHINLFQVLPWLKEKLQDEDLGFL
row,Compound,IC50
1,"COc1cc(C)c(Br)c(C)c1C(O)(c1nc2cc(C#N)ccc2[nH]1)C(F)(F)F (racemic) [Example 4, (±)-2-(1-(3-bromo-6-methoxy-2,4-dimethylphenyl)-2,2,2-trifluoro-1-hydroxyethyl)-1H-benzo[d]imidazole-5-carbonitrile]",98.9 µM
2,"CNC(c1nc2cc(C#N)ccc2[nH]1)(c1c(OC)cc(C)c(Br)c1C)C(F)(F)F (racemic) [Example 6-E, (±)-2-(1-(3-Bromo-6-methoxy-2,4-dimethylphenyl)-2,2,2-trifluoro-1-(methylamino)ethyl)-1H-benzo[d]imidazole-5-carbonitrile]",7 µM
3,"COc1cc(C)cc(C)c1C(OCC(N)=O)(c1nc2cc(C#N)ccc2[nH]1)C(F)(F)F (racemic) [Example 10-C, (±)-2-(1-(5-Cyano-1H-benzo[d]imidazol-2-yl)-2,2,2-trifluoro-1-(2-methoxy-4,6-dimethylphenyl)ethoxy)acetamide]",0.47 µM

# Target: human complement factor B (CVF-Bb complex) (Homo sapiens (Human), UniProt P00751)
# Assay: biochemical
# Method: CVF-Bb complex prepared from purified cobra venom factor (1 μM), recombinant human complement factor B (expressed in drosophila cells and purified using standard methods) and human complement factor D (expressed in E. Coli, refolded and purified using standard methods). CVF-Bb complex at 3 nM concentration was incubated with test compound at various concentrations for 1 hour at room temperature in PBS pH 7.4 containing 10 mM MgCl2 and 0.05% (w/v) CHAPS. Human complement C3 substrate purified from plasma was added to a final concentration of 1 μM. After 1 hour incubation at room temperature, the enzyme reaction was stopped by addition of a cocktail of concentrated pan-protease inhibitors. The product of the reaction, C3a, was quantified by means of an enzyme-linked-immunosorbent assay.
row,Compound,IC50
1,"COc1cc(C)cc(C)c1C(O)c1nc2cc(C#N)ccc2[nH]1 (racemic) [Example 1-C, (±)-2-(Hydroxy(2-methoxy-4,6-dimethylphenyl)methyl)-1H-benzo[d]imidazole-5-carbonitrile]",5.75 µM
2,"COc1cc(C)cc(C)c1C(C)(O)c1nc2cc(C#N)ccc2[nH]1 (racemic) [Example 2-C, (±)-2-(1-Hydroxy-1-(2-methoxy-4,6-dimethylphenyl)ethyl)-1H-benzo[d]imidazole-5-carbonitrile]",1.45 µM
3,"COc1cc(C)cc(C)c1C(O)(c1nc2cc(C#N)ccc2[nH]1)C(F)(F)F (racemic) [Example 3-B, (±)-2-(2,2,2-Trifluoro-1-hydroxy-1-(2-methoxy-4,6-dimethylphenyl)ethyl)-1H-benzo[d]imidazole-5-carbonitrile]",0.39 µM
4,"CNC(c1nc2cc(C#N)ccc2[nH]1)(c1ccc(C)cc1OC)C(F)(F)F (racemic) [Example 6-A, (±)-2-(2,2,2-Trifluoro-1-(2-methoxy-4-methylphenyl)-1-(methylamino)ethyl)-1H-benzo[d]imidazole-5-carbonitrile]",0.38 µM
5,"CNC(c1nc2cc(C#N)ccc2[nH]1)(c1c(OC)cc(C)c(Cl)c1C)C(F)(F)F (racemic) [Example 6-B, (±)-2-(1-(3-Chloro-6-methoxy-2,4-dimethylphenyl)-2,2,2-trifluoro-1-(methylamino)ethyl)-1H-benzo[d]imidazole-5-carbonitrile]",1.98 µM
6,"CNC(c1nc2cc(C#N)ccc2[nH]1)(c1c(C)cccc1OC)C(F)(F)F (racemic) [Example 6-C, (±)-2-(2,2,2-Trifluoro-1-(2-methoxy-6-methylphenyl)-1-(methylamino)ethyl)-1H-benzo[d]imidazole-5-carbonitrile]",3.13 µM
7,"COc1cc(C)cc(C)c1C(N)(c1nc2cc(C#N)ccc2[nH]1)C(F)(F)F (racemic) [Example 6-D, (±)-2-(1-Amino-2,2,2-trifluoro-1-(2-methoxy-4,6-dimethylphenyl)ethyl)-1H-benzo[d]imidazole-5-carbonitrile]",1.57 µM
8,"COc1cc(C)cc(C)c1C(N)c1nc2cc(C#N)ccc2[nH]1 (racemic) [Example 7-D, (±)-2-(Amino(2-methoxy-4,6-dimethylphenyl)methyl)-1H-benzo[d]imidazole-5-carbonitrile]",8.7 µM
9,"COc1cc(C)cc(C)c1C(C)(N)c1nc2cc(C#N)ccc2[nH]1 (racemic) [Example 8-B, (±)-2-(1-Amino-1-(2-methoxy-4,6-dimethylphenyl)ethyl)-1H-benzo[d]imidazole-5-carbonitrile]",6.9 µM
10,"COc1cc(C)cc(C)c1C(N)(c1nc2cc(C#N)ccc2[nH]1)C1CC1 (racemic) [Example 9-C, (±)-2-(Amino(cyclopropyl)(2-methoxy-4,6-dimethylphenyl)methyl)-1H-benzo[d]imidazole-5-carbonitrile]",1.5 µM
11,"CNC(c1nc2cc(C#N)ccc2[nH]1)c1c(OC)cc(C)cc1OC (racemic) [Example 12-D (A), (±)-2-((2,6-Dimethoxy-4-methylphenyl)(methylamino)methyl)-1H-benzo[d]imidazole-5-carbonitrile]",13.9 µM
12,"CNC(c1nc2cc(C#N)ccc2[nH]1)(c1c(OC)cc(C)cc1OC)C(F)(F)F (racemic) [Example 12-D (B), (±)-2-(1-(2,6-dimethoxy-4-methylphenyl)-2,2,2-trifluoro-1-(methylamino)ethyl)-1H-benzo[d]imidazole-5-carbonitrile]",11.1 µM
